Measured values: the NIST ThermoML archive (doi:10.1007/s10765-012-1159-3)
± gives the expanded uncertainty stated by the source.

Conditions: 101.33 kPa, Liquid; for kinematic viscosity: Capillary tube (Ostwald / Ubbelohde) method; for mass density: Vibrating tube method

Row | Structure (SMILES) | kinematic viscosity (293.15 K) | mass density (293.15 K) | kinematic viscosity (298.15 K) | mass density (298.15 K)
1 | C1CCCCC1 [cyclohexane] | 1.256e-06 ± 1.1e-08 m2/s | 778.7 ± 0.6 kg/m3 | 1.154e-06 ± 1e-08 m2/s | 773.9 ± 0.6 kg/m3
2 | CCc1ccccc1 [ethylbenzene] | 7.767e-07 ± 7.4e-09 m2/s | 867.1 ± 0.6 kg/m3 | 7.323e-07 ± 7.2e-09 m2/s | 862.7 ± 0.6 kg/m3
3 | Cc1ccccc1 [toluene] | 6.8e-07 ± 6.8e-09 m2/s | 866.7 ± 0.6 kg/m3 | 6.41e-07 ± 6.6e-09 m2/s | 862 ± 0.6 kg/m3

Results, then the compound that gave them:

Row | kinematic viscosity (293.15 K) | mass density (293.15 K) | kinematic viscosity (298.15 K) | mass density (298.15 K) | Structure (SMILES)
4 | 4.7e-07 ± 5.6e-09 m2/s | 659.4 ± 0.6 kg/m3 | 4.49e-07 ± 5.5e-09 m2/s | 654.9 ± 0.6 kg/m3 | CCCCCC [hexane]
5 | 7.734e-07 ± 7.4e-09 m2/s | 702.5 ± 0.6 kg/m3 | 7.313e-07 ± 7.1e-09 m2/s | 698.5 ± 0.6 kg/m3 | CCCCCCCC [octane]
